Read-outs that look alike come from different tables or passages of the source.
What was measured:
[1] = test system: human multiple myeloma cell line, OPM-2; experiment: Cell viability assay (OPM-2 10 FBS), CellTiter-Glo; format: cell-based
In short: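 3000 cells/well, RPMI 1640 + 10% FBS; serial compound dilutions, 16 h, 37 °C/5% CO2.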

[2] = molecular target: recombinant human Mcl-1 (residues 171-327) / Bim interaction (Homo sapiens (Human), UniProt Q07820); experiment: biochemical; format: binding; settings: read-out: Mcl-1 HTRF IC50
Sequence of recombinant human Mcl-1 (residues 171-327) / Bim interaction (Q07820 171-327): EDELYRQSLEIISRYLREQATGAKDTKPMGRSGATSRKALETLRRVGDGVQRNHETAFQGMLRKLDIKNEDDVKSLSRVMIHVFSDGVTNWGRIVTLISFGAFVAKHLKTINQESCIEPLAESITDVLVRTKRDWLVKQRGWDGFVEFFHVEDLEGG

[3] = read-out: OPM-2 10% FBS IC50 IP, OPM-2 cells, 10% FBS, 16 h, CellTiter-Glo
[4] = TR-FRET, Mcl-1(171-327) / biotin-Bim (51-76)
[5] = Homo sapiens, OPM-2, 16 h, read-out: OPM-2 10% FBS IC50 IP, OPM-2 cells, 10% FBS, 16 h, CellTiter-Glo
[6] = 0.1 nM Mcl-1(171-327), 0.05 nM biotin-Bim (51-76)
[7] = Homo sapiens, OPM-2, 16 h, read-out: OPM-2 10% FBS IC50 IP, OPM-2 cells, 10% FBS, 16 h incubation

SMILES | IC50 [2, 4] | IC50 [2, 6] | IC50 [1, 7] | other results
C[C@@H]1[C@@H](C)C/C=C/[C@@](O)(C#CCCN(C)C)[C@@H]2CC[C@H]2CN2C[C@@]3(CCCc4cc(Cl)ccc43)COc3ccc(cc32)C(=O)NS1(=O)=O [Example 100308, (1S,3′R,6′R,7′S,8′E,11′S,12′R)-6-chloro-7′-(4-(dimethylamino)-1-butyn-1-yl)-7′-hydroxy-11′,12′-dimethyl-3,4-dihydro-2H,15′H-spiro[naphthalene-1,22′-[20]oxa[13]thia[1,14]diazatetracyclo [14.7.2.0~3,6~.0~19,24~]pentacosa[8,16,18,24]tetraen]-15′-one 13′,13′-dioxide] | 0.033 nM | – | – | IC50 [1, 3]: 1170 nM
CO[C@]1(c2ncccn2)/C=C/C[C@H](C)[C@@H](C)S(=O)(=O)NC(=O)c2ccc3c(c2)N(C[C@@H]2CC[C@H]21)C[C@@]1(CCCc2cc(Cl)ccc21)CO3 [Example 100278, (1S,3′R,6′R,7′R,8′E,11′S,12′R)-6-chloro-7′-methoxy-11′,12′-dimethyl-7′-(2-pyrimidinyl)-3,4-dihydro-2H,15′H-spiro[naphthalene-1,22′-[20]oxa[13]thia[1,14]diazatetracyclo [14.7.2.0~3,6~.0~19,24~]pentacosa[8,16,18,24]tetraen]-15′-one 13′,13′-dioxide] | 0.458 nM | – | – | IC50 [1, 5]: 333 nM
CO[C@@]1(CN2CCN3CCN(C(C)C)C[C@@H]3C2)/C=C/C[C@H](C)[C@@H](C)S(=O)(=O)NC(=O)c2ccc3c(c2)N(C[C@@H]2CC[C@H]21)C[C@@]1(CCCc2cc(Cl)ccc21)CO3 (single isomer, unassigned) [Example 241] | – | 0.15 nM | – | IC50 ([1]; read-out: OPM-2 10% FBS IC50 IP, OPM-2 cells, 10% FBS, 16 h incubation): 137 nM
CO[C@]1(CN2CCN3CCCC[C@@H]3C2)/C=C/C[C@H](C)[C@@H](CC=O)S(=O)(=O)NC(=O)c2ccc3c(c2)N(C[C@@H]2CC[C@H]21)C[C@@]1(CCCc2cc(Cl)ccc21)CO3 [Example 360, ((1S,3′R,6′R,7′R,8′E,11′S,12′R)-6-Chloro-7′-methoxy-11′-methyl-7′-((9aR)-octahydro-2H-pyrido[1,2-a]pyrazin-2-ylmethyl)-13′,13′-dioxido-15′-oxo-3,4-dihydro-2H-spiro[naphthalene-1,22′-[20]oxa[13]thia[1,14]diazatetracyclo[14.7.2.0-3,6˜.0˜19,24˜]pentacosa[8,16,18,24]tetraen]-12′-yl)acetaldehyde] | – | 1.07 nM | 2410 nM | –
C[C@@H]1[C@@H](C)C/C=C/[C@@](O)(Cc2ccccn2)[C@@H]2CC[C@H]2CN2C[C@@]3(CCCc4cc(Cl)ccc43)COc3ccc(cc32)C(=O)NS1(=O)=O [Example 100241, (1S,3′R,6′R,7′S,8′E,11′S,12′R)-6-chloro-7′-hydroxy-11′,12′-dimethyl-7′-(2-pyridinylmethyl)-3,4-dihydro-2H,15′H-spiro[naphthalene-1,22′-[20]oxa[13]thia[1,14]diazatetracyclo [14.7.2.0~3,6~.0~19,24~]pentacosa[8,16,18,24]tetraen]-15′-one 13′,13′-dioxide] | 0.365 nM | – | – | IC50 [1, 3]: 401 nM
CO[C@@]1(CN2CCN3CCCC[C@@H]3C2)/C=C/[C@H](C)[C@H](C)CS(=O)(=O)NC(=O)c2ccc3c(c2)N(C[C@@H]2CC[C@H]21)C[C@@]1(CCCc2cc(Cl)ccc21)CO3 [Example 163, (1S,3′R,6′R,7′S,8′E,10′S,11′S)-6-chloro-7′-methoxy-10′,11′-dimethyl-7′-((9aR)-octahydro-2H-pyrido[1,2-a]pyrazin-2-ylmethyl)-3,4-dihydro-2H,15′H-spiro[naphthalene-1,22′-[20]oxa[13]thia[1,14]diazatetracyclo [14.7.2.0~3,6~.0~19,24~]pentacosa[8,16,18,24]tetraen]-15′-one 13′,13′-dioxide] | – | 0.179 nM | 130 nM | –
CO[C@]1(CN2CCc3ncncc3C2)/C=C/C[C@H](C)[C@@H](C)S(=O)(=O)NC(=O)c2ccc3c(c2)N(C[C@@H]2CC[C@H]21)C[C@@]1(CCCc2cc(Cl)ccc21)CO3 [Example 222, (1S,3′R,6′R,7′R,8′E,11′S,12′R)-6-chloro-7′-(7,8-dihydropyrido[4,3-d]pyrimidin-6(5H)-ylmethyl)-7′-methoxy-11′,12′-dimethyl-3,4-dihydro-2H,15′H-spiro[naphthalene-1,22′-[20]oxa[13]thia[1,14]diazatetracyclo [14.7.2.0~3,6~.0~19,24~]pentacosa[8,16,18,24]tetraen]-15′-one 13′,13′-dioxide] | – | 0.08 nM | 118 nM | –
CO[C@@]1(CN2CCN(Cc3noc(C)n3)CC2)/C=C/C[C@H](C)[C@@H](C)S(=O)(=O)NC(=O)c2ccc3c(c2)N(C[C@@H]2CC[C@H]21)C[C@@]1(CCCc2cc(Cl)ccc21)CO3 [Example 316, (1S,3′R,6′R,7′S,8′E,11′S,12′R)-6-chloro-7′-methoxy-11′,12′-dimethyl-7′-((4-((5-methyl-1,2,4-oxadiazol-3-yl)methyl)-1-piperazinyl)methyl)-3,4-dihydro-2H,15′H-spiro[naphthalene-1,22′-[20]oxa[13]thia[1,14]diazatetracyclo [14.7.2.0~3,6~.0~19,24~]pentacosa[8,16,18,24]tetraen]-15′-one 13′,13′-dioxide] | – | 0.166 nM | 47 nM | –
CO[C@@]1(CC(=O)N(C)CC(F)(F)F)/C=C/C[C@H](C)[C@@H](C)S(=O)(=O)NC(=O)c2ccc3c(c2)N(C[C@@H]2CC[C@H]21)C[C@@]1(CCCc2cc(Cl)ccc21)CO3 [Example 100375, 2-((1S,3′R,6′R,7′S,8′E,11′S,12′R)-6-chloro-7′-methoxy-11′,12′-dimethyl-13′,13′-dioxido-15′-oxo-3,4-dihydro-2H-spiro[naphthalene-1,22′-[20]oxa[13]thia[1,14]diazatetracyclo [14.7.2.0~3,6~.0~19,24~]pentacosa[8,16,18,24]tetraen]-7′-yl)-N-methyl-N-(2,2,2-trifluoroethyl)acetamide] | 0.07 nM | – | – | IC50 [1, 5]: 176 nM
COCC[C@@H]1[C@@H](C)C/C=C/[C@@](CN2C[C@@H](C)N(C)[C@@H](C)C2)(OC)[C@@H]2CC[C@H]2CN2C[C@@]3(CCCc4cc(Cl)ccc43)COc3ccc(cc32)C(=O)NS1(=O)=O [Example 191, (1S,3′R,6′R,7′R,8′E,11′S,12′R)-6-chloro-7′-methoxy-12′-(2-methoxyethyl)-11′-methyl-7′-(((3R,5S)-3,4,5-trimethyl-1-piperazinyl)methyl)-3,4-dihydro-2H,15′H-spiro[naphthalene-1,22′-[20]oxa[13]thia[1,14]diazatetracyclo [14.7.2.0~3,6~.0~19,24~]pentacosa[8,16,18,24]tetrae11]-15′-one 13′,13′-dioxide] | – | 0.096 nM | 42 nM | –
COCC(COC)N1CCN(C[C@]2(OC)/C=C/C[C@H](C)[C@@H](C)S(=O)(=O)NC(=O)c3ccc4c(n3)N(C[C@@H]3CC[C@H]32)C[C@@]2(CCCc3cc(Cl)ccc32)CO4)CC1 [Example 371, (1S,3′R,6′R,7′S,8′E,11′S,12′R)-6-chloro-7′-methoxy-7′-((4-(2-methoxy-1-(methoxymethyl)ethyl)-1-piperazinyl)methyl)-11′,12′-dimethyl-3,4-dihydro-2H,15′H-spiro[naphthalene1,22′-[20]oxa[13]thia[1,14,25]triazatetracyclo [14.7.2.0~3,6~.0~19,24~]pentacosa[8,16,18,24]tetraen]-15′-one 13′,13′-dioxide] | – | 0.101 nM | 43 nM | –
CO[C@@]1(CCN2CCCC2)/C=C/C[C@H](C)[C@@H](C)S(=O)(=O)NC(=O)c2ccc3c(c2)N(C[C@@H]2CC[C@H]21)C[C@@]1(CCCc2cc(Cl)ccc21)CO3 [Example 100412, (1S,3′R,6′R,7′S,8′E,11′S,12′R)-6-chloro-7′-methoxy-11′,12′-dimethyl-7′-(2-(1-pyrrolidinyl)ethyl)-3,4-dihydro-2H,15′H-spiro[naphthalene-1,22′-[20]oxa[13]thia[1,14]diazatetracyclo [14.7.2.0~3,6~.0~19,24~]pentacosa[8,16,18,24]tetraen]-15′-one 13′,13′-dioxide] | 0.097 nM | – | – | IC50 [1, 5]: 249 nM
CO[C@@]1(CC=O)/C=C/C[C@H](C)[C@@H](C)S(=O)(=O)NC(=O)c2ccc3c(c2)N(C[C@@H]2CC[C@H]21)C[C@@]1(CCCc2cc(Cl)ccc21)CO3 [Example 100323, ((1S,3′R,6′R,7′S,8′E,11′S,12′R)-6-chloro-7′-methoxy-11′,12′-dimethyl-13′,13′-dioxido-15′-oxo-3,4-dihydro-2H-spiro[naphthalene-1,22′-[20]oxa[13]thia[1,14]diazatetracyclo [14.7.2.0~3,6~.0~19,24~]pentacosa[8,16,18,24]tetraen]-7′-yl)acetaldehyde] | 0.477 nM | – | – | IC50 [1, 5]: 1250 nM
C[C@@H]1[C@@H](C)CCC[C@@](O)(CCN2CCOCC2)[C@@H]2CC[C@H]2CN2C[C@@]3(CCCc4cc(Cl)ccc43)COc3ccc(cc32)C(=O)NS1(=O)=O [Example 100096, (1S,3′R,6′R,7′R,11′S,12′R)-6-chloro-7′-hydroxy-11′,12′-dimethyl-7′-(2-(4-morpholinyl)ethyl)-3,4-dihydro-2H,15′H-spiro[naphthalene-1,22′-[20]oxa[13]thia[1,14]diazatetracyclo [14.7.2.0~3,6~.0~19,24~]pentacosa[16,18,24]trien]-15′-one 13′,13′-dioxide] | 0.624 nM | – | – | IC50 [1, 3]: 517 nM

— US10821115B2, “Compounds that inhibit Mcl-1 protein” (priority 2017, dated 2020)
